According to patent publication US8680012B2, “4-phenyl-pyrane-3,5-diones,4-phenyl-thiopyrane-3,6-diones and cyclohexanetriones as novel herbicides” (Syngenta Crop Protection LLC, priority 2006, dated 2014):

Tests used:
Assay type in all cases: in vivo
[1] = tested on: Echinochloa crus-galli (ECHCG); test: Example B pre-emergence herbicidal activity, glasshouse pot test; conditions: 312 h, evaluated after 13 days, read-out: Pre-emergence activity ECHCG (100=total damage to plant; 0=no damage to plant); for pest or weed control at 1000 g/ha: rate 1000 g/ha; for pest or weed control at 250 g/ha: rate 250 g/ha
How it was run: (§1)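 Potted plants grown from seed in a controlled glasshouse (24 °C day, 16 °C night; 14 h light; 65% humidity) were sprayed either pre-emergence, one day after sowing, or post-emergence after 8 days. Vehicle: acetone/water (50:50), 0.5% Tween 20. Scoring after 13 days, 0 = undamaged.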

Setaria faberi (SETFA) [2] = test: as above; conditions: 312 h, evaluated after 13 days, read-out: Pre-emergence activity SETFA (100=total damage to plant; 0=no damage to plant); for pest or weed control at 1000 g/ha: rate 1000 g/ha; for pest or weed control at 250 g/ha: rate 250 g/ha
How it was run: as §1

[3] = tested on: Alopecurus myosuroides (ALOMY); test: as above; conditions: 312 h, evaluated after 13 days, read-out: Pre-emergence activity ALOMY (100=total damage to plant; 0=no damage to plant); for pest or weed control at 1000 g/ha: rate 1000 g/ha; for pest or weed control at 250 g/ha: rate 250 g/ha
How it was run: as §1

[4] = tested on: Amaranthus retroflexus (AMARE); test: as above; conditions: 312 h, evaluated after 13 days, read-out: Pre-emergence activity AMARE (100=total damage to plant; 0=no damage to plant); for pest or weed control at 1000 g/ha: rate 1000 g/ha; for pest or weed control at 250 g/ha: rate 250 g/ha
How it was run: as §1

Avena fatua (AVEFA) [5] = test: as above; conditions: 312 h, evaluated after 13 days, read-out: Pre-emergence activity AVEFA (100=total damage to plant; 0=no damage to plant); for pest or weed control at 1000 g/ha: rate 1000 g/ha; for pest or weed control at 250 g/ha: rate 250 g/ha
How it was run: as §1

Solanum nigrum (SOLNI) [6] = test: as above; conditions: 312 h, evaluated after 13 days, read-out: Pre-emergence activity SOLNI (100=total damage to plant; 0=no damage to plant); for pest or weed control at 1000 g/ha: rate 1000 g/ha; for pest or weed control at 250 g/ha: rate 250 g/ha
How it was run: as §1

[7] = tested on: Echinochloa crus-galli (ECHCG); test: Example B post-emergence herbicidal activity, glasshouse pot test; conditions: 312 h, evaluated after 13 days, read-out: Post-emergence activity ECHCG (100=total damage to plant; 0=no damage to plant); for pest or weed control at 1000 g/ha: rate 1000 g/ha; for pest or weed control at 250 g/ha: rate 250 g/ha
How it was run: as §1

Setaria faberi (SETFA) [8] = test: as above; conditions: 312 h, evaluated after 13 days, read-out: Post-emergence activity SETFA (100=total damage to plant; 0=no damage to plant); for pest or weed control at 1000 g/ha: rate 1000 g/ha; for pest or weed control at 250 g/ha: rate 250 g/ha
How it was run: as §1

[9] = tested on: Alopecurus myosuroides (ALOMY); test: as above; conditions: 312 h, evaluated after 13 days, read-out: Post-emergence activity ALOMY (100=total damage to plant; 0=no damage to plant); for pest or weed control at 1000 g/ha: rate 1000 g/ha; for pest or weed control at 250 g/ha: rate 250 g/ha
How it was run: as §1

[10] = tested on: Amaranthus retroflexus (AMARE); test: as above; conditions: 312 h, evaluated after 13 days, read-out: Post-emergence activity AMARE (100=total damage to plant; 0=no damage to plant); for pest or weed control at 1000 g/ha: rate 1000 g/ha; for pest or weed control at 250 g/ha: rate 250 g/ha
How it was run: as §1

Avena fatua (AVEFA) [11] = test: as above; conditions: 312 h, evaluated after 13 days, read-out: Post-emergence activity AVEFA (100=total damage to plant; 0=no damage to plant); for pest or weed control at 1000 g/ha: rate 1000 g/ha; for pest or weed control at 250 g/ha: rate 250 g/ha
How it was run: as §1

Solanum nigrum (SOLNI) [12] = test: as above; conditions: 312 h, evaluated after 13 days, read-out: Post-emergence activity SOLNI (100=total damage to plant; 0=no damage to plant); for pest or weed control at 1000 g/ha: rate 1000 g/ha; for pest or weed control at 250 g/ha: rate 250 g/ha
How it was run: as §1

SMILES	pest or weed control at 1000 g/ha [1]	pest or weed control at 1000 g/ha (Setaria faberi (SETFA) [2])	pest or weed control at 1000 g/ha [3]	pest or weed control at 1000 g/ha [4]	pest or weed control at 1000 g/ha (Avena fatua (AVEFA) [5])	pest or weed control at 1000 g/ha (Solanum nigrum (SOLNI) [6])	pest or weed control at 1000 g/ha [7]	pest or weed control at 1000 g/ha (Setaria faberi (SETFA) [8])	pest or weed control at 1000 g/ha [9]	pest or weed control at 1000 g/ha [10]	pest or weed control at 1000 g/ha (Avena fatua (AVEFA) [11])	pest or weed control at 1000 g/ha (Solanum nigrum (SOLNI) [12])	other results
CCc1ccc(-c2ccc(Cl)cc2)cc1C1=C(OC(=O)OC)C(C)(C)OC(C)(C)C1=O [Compound D-16]	90%	100%	50%	0%	0%	0%	100%	100%	90%	0%	20%	0%	–
CCc1ccc(-c2ccc(Cl)cc2)cc1C1=C(OC(=O)C(C)(C)OC)C(C)(C)OC(C)(C)C1=O [Compound D-20]	60%	90%	30%	0%	0%	0%	100%	100%	100%	20%	90%	0%	–
Cc1ccc(-c2ccc(F)cc2F)cc1C1=C(O)C(C)(C)OC(C)(C)C1=O [Compound A-27]	100%	90%	80%	10%	60%	20%	100%	100%	80%	100%	80%	50%	–
Cc1ccc(-c2ccc(Cl)nc2C)cc1C1=C(O)C(C)(C)C(=O)C(C)(C)C1=O [Compound B-6]	0%	0%	0%	100%	0%	90%	50%	30%	20%	0%	0%	0%	–
CCc1ccc(-c2ccc(Cl)c(F)c2)cc1C1=C(O)C(C)(C)C(=O)C(C)(C)C1=O [Compound B-12]	–	–	–	–	–	–	–	–	–	–	–	–	pest or weed control at 250 g/ha [1]: 30%; pest or weed control at 250 g/ha (Setaria faberi (SETFA) [2]): 50%; pest or weed control at 250 g/ha [3]: 0%; pest or weed control at 250 g/ha [4]: 0%; pest or weed control at 250 g/ha (Avena fatua (AVEFA) [5]): 0%; pest or weed control at 250 g/ha (Solanum nigrum (SOLNI) [6]): 0%; pest or weed control at 250 g/ha [7]: 100%; pest or weed control at 250 g/ha (Setaria faberi (SETFA) [8]): 90%; pest or weed control at 250 g/ha [9]: 60%; pest or weed control at 250 g/ha [10]: 30%; pest or weed control at 250 g/ha (Avena fatua (AVEFA) [11]): 0%; pest or weed control at 250 g/ha (Solanum nigrum (SOLNI) [12]): 0%
Cc1ccc(-c2ccc(Cl)cc2Cl)cc1C1=C(O)C(C)(C)C(=O)C(C)(C)C1=O [Compound B-7]	50%	60%	0%	0%	0%	20%	60%	70%	20%	70%	20%	70%	–
CCc1ccc(-c2ccc(Cl)cc2)cc1C1=C(OC(C)=O)C(C)(C)OC(C)(C)C1=O [Compound D-7]	90%	100%	60%	0%	30%	0%	100%	100%	90%	0%	70%	0%	–
CCc1ccc(-c2ccc(Cl)c(C#N)c2)cc1C1=C(O)C(C)(C)C(=O)C(C)(C)C1=O [Compound B-27]	–	–	–	–	–	–	–	–	–	–	–	–	pest or weed control at 250 g/ha [1]: 0%; pest or weed control at 250 g/ha (Setaria faberi (SETFA) [2]): 0%; pest or weed control at 250 g/ha [3]: 0%; pest or weed control at 250 g/ha [4]: 0%; pest or weed control at 250 g/ha (Avena fatua (AVEFA) [5]): 0%; pest or weed control at 250 g/ha (Solanum nigrum (SOLNI) [6]): 0%; pest or weed control at 250 g/ha [7]: 80%; pest or weed control at 250 g/ha (Setaria faberi (SETFA) [8]): 60%; pest or weed control at 250 g/ha [9]: 70%; pest or weed control at 250 g/ha [10]: 0%; pest or weed control at 250 g/ha (Avena fatua (AVEFA) [11]): 0%; pest or weed control at 250 g/ha (Solanum nigrum (SOLNI) [12]): 0%
Cc1ccc(-c2ccc(Cl)cc2)cc1C1=C(O)C2(CCOCC2)OCC1=O (single isomer, unassigned) [Compound A-37]	30%	20%	40%	0%	20%	0%	90%	80%	70%	0%	30%	70%	–
CCC(=O)OC1=C(c2cc(-c3ccc(Cl)cc3)ccc2CC)C(=O)C(C)(C)OC1(C)C [Compound D-8]	90%	90%	40%	0%	0%	0%	100%	100%	60%	0%	10%	0%	–
Cc1ccc(-c2ccc(Cl)cc2)cc1C1=C(O)C(C)(C)C(=O)C(C)(C)C1=O [Compound B-4]	30%	0%	0%	0%	0%	0%	90%	90%	80%	70%	30%	40%	–
Cc1ccc(-c2cc(F)cc(F)c2)cc1C1=C(O)C(C)(C)OC(C)(C)C1=O [Compound A-25]	80%	20%	70%	0%	30%	0%	90%	70%	70%	100%	0%	70%	–
